Assay results published in the NIST ThermoML archive (doi:10.1016/j.jct.2015.12.025).

Assay: xn = mol fraction of the nth substance listed
Details: 102 kPa, Liquid, Vibrating tube method

C[Si]1(CCC(F)(F)F)O[Si](C)(CCC(F)(F)F)O[Si](C)(CCC(F)(F)F)O1 (stereo not given) + CCc1ccccc1
mass density [kg/m3]
Details | 308.15 K | 313.15 K | 318.15 K | 323.15 K
x1 = 0.05 | 905.01 | 900.4 | 895.69 | 890.85
x1 = 0.1 | 947.97 | 943.16 | 938.39 | 933.5
x1 = 0.15 | 984.47 | 979.55 | 974.46 | 969.52
x1 = 0.1967 | 1013.95 | 1008.92 | 1003.57 | 998.43
x1 = 0.25 | 1043.11 | 1037.94 | 1032.55 | 1027.19
x1 = 0.2998 | 1066.87 | 1061.66 | 1056.21 | 1050.74
x1 = 0.35 | 1088.17 | 1082.82 | 1077.22 | 1071.74
x1 = 0.377 | 1098.7 | 1093.23 | 1087.75 | 1082.06
x1 = 0.4437 | 1121.97 | 1116.36 | 1110.93 | 1104.98
x1 = 0.5001 | 1139.32 | 1133.58 | 1127.97 | 1121.88
x1 = 0.5492 | 1152.93 | 1147.02 | 1141.17 | 1135.21
x1 = 0.5994 | 1165.69 | 1159.63 | 1153.7 | 1147.6
x1 = 0.6499 | 1177.11 | 1171.2 | 1165.14 | 1158.94
x1 = 0.6997 | 1187.73 | 1181.59 | 1175.49 | 1169.24
x1 = 0.7502 | 1197.39 | 1191.42 | 1185.03 | 1178.51
x1 = 0.7999 | 1206.57 | 1200.31 | 1193.75 | 1187.44
x1 = 0.8498 | 1214.84 | 1208.54 | 1202.09 | 1195.57
x1 = 0.9002 | 1222.62 | 1216.17 | 1209.67 | 1203.21
x1 = 0.9498 | 1229.79 | 1223.31 | 1216.79 | 1210.24
x1 = 1 | 1236.63 | 1230.05 | 1223.55 | 1216.99
